Experimental data from ChEMBL document CHEMBL2417397, “Synthesis and biological properties of new N-Mannich bases derived from 3-methyl-3-phenyl- and 3,3-dimethyl-succinimides. Part V” (Eur J Med Chem, 2013).
Active and inactive are the calls of the source. No cut-off for these calls is given here.

What was measured:
[1] = Neurotoxicity in po dosed Sprague-Dawley albino rat at 30 mg/kg, po after 0.25 to 4 hrs by rotarod test; assay type: toxicity, organism-based; design: dose 30 mg/kg, route oral; details: in vivo
[2] = tested on: Rattus norvegicus; assay: Anticonvulsant activity in po dosed Sprague-Dawley albino rat assessed as protection against maximal electroshock-induced seizures after 0.25 to 4 hrs; assay type: functional
[3] = species on record: Rattus norvegicus; assay: Protective index, ratio of TD50 for Sprague-Dawley albino rat by rotarod test to ED50 for Sprague-Dawley albino rat; assay type: functional
[4] = Neurotoxicity in ip dosed CF-1 albino mouse after 0.5 hrs by rotarod test; assay type: toxicity, organism-based; details: CF-1, mouse, in vivo
[5] = tested on: Mus musculus; assay: Anticonvulsant activity in CF-1 albino mouse assessed as protection against maximal electroshock-induced seizures at 300 mg/kg, ip after 0.5 hrs; assay type: functional, organism-based; design: dose 300 mg/kg
[6] = Neurotoxicity in ip dosed CF-1 albino mouse after 4 hrs by rotarod test; assay type: toxicity, organism-based; details: CF-1, mouse, in vivo
[7] = tested on: Mus musculus; assay: Anticonvulsant activity in ip dosed CF-1 albino mouse assessed as protection against maximal electroshock-induced seizures after 4 hrs; assay type: functional
[8] = tested on: Mus musculus; assay: Neurotoxicity in CF-1 albino mouse at 300 mg/kg, ip after 4 hrs by rotarod test; assay type: toxicity, organism-based; design: dose 300 mg/kg, route intraperitoneal; details: in vivo
[9] = tested on: Vibrio harveyi; assay: Induction of mutagenecity in Vibrio harveyi BB7; assay type: organism-based; details: in vivo
[10] = tested on: Rattus norvegicus; assay: Anticonvulsant activity in Sprague-Dawley albino rat assessed as protection against maximal electroshock-induced seizures at 30 mg/kg, po after 0.25 hrs; assay type: functional
[11] = tested on: Vibrio harveyi; assay: Induction of mutagenecity in Vibrio harveyi BB7XM; assay type: organism-based; details: in vivo
[12] = tested on: Vibrio harveyi; assay: Antimutagenic activity in Vibrio harveyi BB7M assessed as inhibition of 4-nitroquinoline-N-oxide-induced mutation; assay type: functional
[13] = tested on: Rattus norvegicus; assay: Anticonvulsant activity in Sprague-Dawley albino rat assessed as protection against maximal electroshock-induced seizures at 30 mg/kg, po after 0.5 hrs; assay type: functional
[14] = tested on: Rattus norvegicus; assay: Anticonvulsant activity in Sprague-Dawley albino rat assessed as protection against maximal electroshock-induced seizures at 30 mg/kg, po after 2 hrs; assay type: functional
[15] = tested on: Mus musculus; assay: Neurotoxicity in CF-1 albino mouse at 300 mg/kg, ip after 0.5 hrs by rotarod test; assay type: toxicity, organism-based; design: dose 300 mg/kg, route intraperitoneal; details: in vivo
[16] = tested on: Vibrio harveyi; assay: Induction of mutagenecity in Vibrio harveyi BB7M; assay type: organism-based; details: in vivo
[17] = tested on: Vibrio harveyi; assay: Antimutagenic activity in Vibrio harveyi BB7 assessed as inhibition of 4-nitroquinoline-N-oxide-induced mutation; assay type: functional
[18] = tested on: Vibrio harveyi; assay: Induction of mutagenecity in Vibrio harveyi BB7X; assay type: organism-based; details: in vivo
[19] = tested on: Vibrio harveyi; assay: Antimutagenic activity in Vibrio harveyi BB7X assessed as inhibition of 4-nitroquinoline-N-oxide-induced mutation; assay type: functional
[20] = tested on: Vibrio harveyi; assay: Antimutagenic activity in Vibrio harveyi BB7XM assessed as inhibition of 4-nitroquinoline-N-oxide-induced mutation; assay type: functional
[21] = tested on: Rattus norvegicus; assay: Anticonvulsant activity in Sprague-Dawley albino rat assessed as protection against maximal electroshock-induced seizures at 30 mg/kg, po after 4 hrs; assay type: functional
[22] = tested on: Rattus norvegicus; assay: Neurotoxicity in Sprague-Dawley albino rat assessed as motor impairment at 30 mg/kg, po; assay type: toxicity, organism-based; design: dose 30 mg/kg, route oral; details: in vivo
[23] = tested on: Rattus norvegicus; assay: Anticonvulsant activity in Sprague-Dawley albino rat assessed as protection against maximal electroshock-induced seizures at 30 mg/kg, po after 1 hr; assay type: functional
[24] = tested on: Mus musculus; assay: Anticonvulsant activity in CF-1 albino mouse assessed as protection against maximal electroshock-induced seizures at 300 mg/kg, ip after 4 hrs; assay type: functional, organism-based; design: dose 300 mg/kg
[25] = tested on: Mus musculus; assay: Anticonvulsant activity in ip dosed CF-1 albino mouse assessed as protection against maximal electroshock-induced seizures after 0.5 hrs; assay type: functional
[26] = tested on: Rattus norvegicus; assay: Anticonvulsant activity in Sprague-Dawley albino rat assessed as time of peak effect for protection against maximal electroshock-induced seizures at 30 mg/kg, po; assay type: functional
[27] = tested on: Mus musculus; assay: Anticonvulsant activity in CF-1 albino mouse assessed as time of peak effect for protection against maximal electroshock-induced seizures at 30 to 300 mg/kg, ip; assay type: functional; details: dose mg/kg 30-300; route intraperitoneal

| SMILES | TD50 at 0.5 h [4] | Activity [5] | TD50 at 4 h [6] | MED50 [7] | Activity [8] | Activity [9] | Activity [11] | Activity [16] | Activity [18] | Activity [24] | further results |
| --- | --- | --- | --- | --- | --- | --- | --- | --- | --- | --- | --- |
| O=C1CC2(CCc3ccccc3C2)C(=O)N1CN1CCN(c2cccc(Cl)c2)CC1 (configuration not stated) | – | – | – | – | – | – | – | – | – | – | TD50 [1]: > 400 mg/kg; ED50 [2]: 15.6 mg/kg; Ratio TD50/ED50 [3]: >25.69 |
| CC1(C)CC(=O)N(CN2CCN(c3ccccc3)CC2)C1=O | 300 mg/kg | inactive | 300 mg/kg | 100 mg/kg | – | – | – | – | – | – | – |
| CC1(c2ccccc2)CC(=O)N(CN2CCN(c3ccc(Cl)cc3)CC2)C1=O (configuration not stated) | – | inactive | – | 100 mg/kg | Non-toxic | Non-toxic | Non-toxic | Non-toxic | Non-toxic | – | Activity [10]: inactive; inhibition (INH) [12]: 43%; Activity [13]: inactive; Activity [14]: 75%; Activity [15]: Non-toxic; inhibition (INH) [17]: 6%; inhibition (INH) [19]: 0%; inhibition (INH) [20]: 43%; Activity [21]: 75%; Activity [22]: Non-toxic; Activity [23]: 75% |
| CC1(C)CC(=O)N(CN2CCN(c3ccc(Cl)cc3)CC2)C1=O | 300 mg/kg | inactive | – | – | Non-toxic | – | – | – | – | inactive | – |
| CC1(C)CC(=O)N(CN2CCN(c3ccc(F)cc3)CC2)C1=O | 300 mg/kg | inactive | – | – | Non-toxic | – | – | – | – | inactive | – |
| COc1ccccc1N1CCN(CN2C(=O)CC(C)(C)C2=O)CC1 | 300 mg/kg | inactive | – | – | Non-toxic | – | – | – | – | inactive | – |
| Cc1ccccc1N1CCN(CN2C(=O)CC(C)(c3ccccc3)C2=O)CC1 (configuration not stated) | 300 mg/kg | inactive | – | – | Non-toxic | Non-toxic | Toxic | Toxic | Non-toxic | inactive | – |
| CC1(c2ccccc2)CC(=O)N(CN2CCN(c3ccccc3F)CC2)C1=O (configuration not stated) | 300 mg/kg | inactive | 300 mg/kg | 100 mg/kg | – | Non-toxic | Non-toxic | Non-toxic | Non-toxic | – | inhibition (INH) [12]: 57%; inhibition (INH) [17]: 25%; inhibition (INH) [19]: 0%; inhibition (INH) [20]: 35% |
| CC1(c2ccccc2)CC(=O)N(CN2CCN(c3cccc(C(F)(F)F)c3)CC2)C1=O (configuration not stated) | – | inactive | 300 mg/kg | 100 mg/kg | – | – | – | – | – | – | Activity [15]: Non-toxic |
| CC1(C)CC(=O)N(CN2CCN(c3ccccc3Cl)CC2)C1=O | 100 mg/kg | inactive | – | – | Non-toxic | – | – | – | – | inactive | – |
| O=C1CC(c2ccccc2)(c2ccccc2)C(=O)N1CN1CCN(c2cccc(C(F)(F)F)c2)CC1 | – | – | – | – | – | – | – | – | – | – | TD50 [1]: < 400 mg/kg; ED50 [2]: 30 mg/kg; Ratio TD50/ED50 [3]: <13.2 |
| CCC1(C)CC(=O)NC1=O (configuration not stated) [ETHOSUXIMIDE] | – | – | – | – | – | Non-toxic | Non-toxic | Non-toxic | Non-toxic | – | inhibition (INH) [12]: 43%; inhibition (INH) [17]: 30%; inhibition (INH) [19]: 0%; inhibition (INH) [20]: 43% |
| CC1(c2ccccc2)CC(=O)N(CN2CCN(c3ccccc3Cl)CC2)C1=O (configuration not stated) | – | inactive | – | – | Non-toxic | Non-toxic | Non-toxic | Non-toxic | Non-toxic | inactive | inhibition (INH) [12]: 47%; Activity [15]: Non-toxic; inhibition (INH) [17]: 3%; inhibition (INH) [19]: 0%; inhibition (INH) [20]: 49% |
| CC1(C)CC(=O)N(CN2CCN(c3ccccc3F)CC2)C1=O | 300 mg/kg | inactive | – | 100 mg/kg | Non-toxic | – | – | – | – | – | – |
| O=C1CC(c2ccccc2Br)C(=O)N1CN1CCN(c2ccc(F)cc2)CC1 (configuration not stated) | – | – | – | – | – | – | – | – | – | – | TD50 [1]: 62.4 mg/kg; ED50 [2]: 7.4 mg/kg |
| COc1ccccc1N1CCN(CN2C(=O)CC(C)(c3ccccc3)C2=O)CC1 (configuration not stated) | 300 mg/kg | – | 300 mg/kg | 100 mg/kg | – | Non-toxic | Toxic | Toxic | Non-toxic | – | Activity [10]: inactive; Activity [13]: inactive; Activity [14]: 50%; MED50 [25]: 100 mg/kg; Activity [21]: 50%; Activity [22]: Non-toxic; Activity [23]: 50% |
| Cc1ccccc1N1CCN(CN2C(=O)CC(C)(C)C2=O)CC1 | 300 mg/kg | inactive | 300 mg/kg | – | – | – | – | – | – | inactive | – |
| CC1(C)CC(=O)N(CN2CCN(c3ccc(Cl)c(Cl)c3)CC2)C1=O | – | inactive | – | – | Non-toxic | – | – | – | – | inactive | Activity [15]: Non-toxic |
| COc1cccc(N2CCN(CN3C(=O)CC(C)(C)C3=O)CC2)c1 | 300 mg/kg | inactive | – | 100 mg/kg | Non-toxic | – | – | – | – | – | Activity [10]: inactive; Activity [13]: 25%; Activity [14]: inactive; Activity [21]: inactive; Activity [22]: Non-toxic; Activity [23]: inactive |
| Cc1cccc(N2CCN(CN3C(=O)CC(C)(C)C3=O)CC2)c1 | 300 mg/kg | inactive | – | – | Non-toxic | – | – | – | – | inactive | – |
| Cc1cccc(N2CCN(CN3C(=O)CC(C)(c4ccccc4)C3=O)CC2)c1 (configuration not stated) | 300 mg/kg | – | 300 mg/kg | 100 mg/kg | – | Non-toxic | Toxic | Toxic | Non-toxic | – | Activity [10]: inactive; Activity [13]: inactive; Activity [14]: 50%; MED50 [25]: 100 mg/kg; Activity [21]: 50%; Activity [22]: Non-toxic; Activity [23]: 50% |
| COc1cccc(N2CCN(CN3C(=O)CC(C)(c4ccccc4)C3=O)CC2)c1 (configuration not stated) | – | – | – | 100 mg/kg | Non-toxic | Non-toxic | Toxic | Toxic | Non-toxic | – | Activity [15]: Non-toxic; MED50 [25]: 100 mg/kg |
| CC1(C)CC(=O)N(CN2CCN(c3cccc(C(F)(F)F)c3)CC2)C1=O | 300 mg/kg | inactive | 300 mg/kg | 30 mg/kg | – | – | – | – | – | – | Activity [10]: 25%; Activity [13]: 75%; Activity [14]: 50%; Activity [21]: Active; Activity [22]: Non-toxic; Activity [23]: 25% |
| O=C1NC(=O)C(c2ccccc2)(c2ccccc2)N1 [PHENYTOIN] | – | – | – | – | – | – | – | – | – | – | TD50 [1]: > 100 mg/kg; Time [26]: 2 h; Time [27]: 1 h; Activity [10]: 25%; Activity [13]: Active; Activity [14]: 75%; Ratio TD50/ED50 [3]: >3.6; Activity [21]: 75%; Activity [23]: 75% |
| CC1(c2ccccc2)CC(=O)N(CN2CCN(c3ccccc3)CC2)C1=O (configuration not stated) | – | inactive | – | 100 mg/kg | Non-toxic | Non-toxic | Non-toxic | Non-toxic | Non-toxic | – | inhibition (INH) [12]: 38%; Activity [15]: Non-toxic; inhibition (INH) [17]: 28%; inhibition (INH) [19]: 0%; inhibition (INH) [20]: 40% |
| CC1(C)CC(=O)N(CN2CCN(c3cccc(Cl)c3)CC2)C1=O | 300 mg/kg | inactive | 300 mg/kg | – | – | – | – | – | – | inactive | – |
